What all share (type): cell-based
Assay [1] deals with microfilariae of Dirofilaria immitis. Briefly: Dirofilaria immitis, Microfilaria (DiMF) In vitro Assay. The following applies: 72 h, read-out: DiMF Minimum Effective Dose (MED), approximately 72 hours incubation, microfilariae assessed for survival or paralysis.
Assay [2] has as its system 4th stage larvae (L4) of Dirofilaria immitis. Briefly: Dirofilaria immitis, L4 Stage (DiL4) In Vitro Assay. Conditions: Dirofilaria immitis, 72 h, read-out: DiL4 Minimum Effective Dose (MED), approximately 72 hours incubation; L4 larvae assessed for survival or paralysis.
The subject of assay [3] is third stage larvae of Haemonchus contortus. Description: Haemonchus contortus L3 (HcL3) Assay. Conditions: 96 h, read-out: HcL3 Minimum Effective Dose (MED).

Data on 12 compounds can be found in patent publication US11331369B2, “Endoparasitic depsipeptides” (Zoetis Services LLC, priority 2017, dated 2022).

SMILES strings stand for the structures. Where only a bound is given, the exact number is not on record here.

With `CC(C)C[C@H]1C(=O)O[C@H](Cc2ccc(Cn3nccc3Br)cc2)C(=O)N(C)[C@@H](CC(C)C)C(=O)O[C@H](C)C(=O)N(C)[C@@H](CC(C)C)C(=O)O[C@H](Cc2ccc(Cn3ccc(Br)n3)cc2)C(=O)N(C)[C@@H](CC(C)C)C(=O)O[C@H](C)C(=O)N1C` [Example 1a-31, (3S,6R,9S,12R,15S,18R,21S,24R)-6-(4-((3-bromo-1H-pyrazol-1-yl)methyl)benzyl)-18-(4-((5-bromo-1H-pyrazol-1-yl)methyl)benzyl)-3,9,15,21-tetraisobutyl-4,10,12,16,22,24-hexamethyl-1,7,13,19-tetraoxa-4,10,16,22-tetraazacyclotetracosan-2,5,8,11,14,17,20,23-octaone], the minimal effective concentration fell in the range of 0.01 to 0.1 µM in assay [1], 0.0001 to 0.001 µM in assay [2] and 1 to 10 µM in assay [3].

For `CC(C)C[C@H]1C(=O)O[C@H](Cc2ccc(Cn3ccnc3Br)cc2)C(=O)N(C)[C@@H](CC(C)C)C(=O)O[C@H](C)C(=O)N(C)[C@@H](CC(C)C)C(=O)O[C@H](Cc2ccccc2)C(=O)N(C)[C@@H](CC(C)C)C(=O)O[C@H](C)C(=O)N1C` [Example 8-3, (3S,6R,9S,12R,15S,18R,21S,24R)-6-benzyl-18-[[4-[(2-bromoimidazol-1-yl)methyl]phenyl]methyl]-3,9,15,21-tetraisobutyl-4,10,12,16,22,24-hexamethyl-1,7,13,19-tetraoxa-4,10,16,22-tetrazacyclotetracosane-2,5,8,11,14,17,20,23-octaone], the minimal effective concentration in assay [1] is 0.001 to 0.01 µM; in assay [2], 0.0001 to 0.001 µM; in assay [3], 1 to 10 µM.

For the compound `CC(C)C[C@H]1C(=O)O[C@H](Cc2ccc(Cn3ccc(N)n3)cc2)C(=O)N(C)[C@@H](CC(C)C)C(=O)O[C@H](C)C(=O)N(C)[C@@H](CC(C)C)C(=O)O[C@H](Cc2ccc(Cn3ccc(N)n3)cc2)C(=O)N(C)[C@@H](CC(C)C)C(=O)O[C@H](C)C(=O)N1C` [Example 1b-143, (3S,6R,9S,12R,15S,18R,21S,24R)-6,18-bis(4-((3-amino-1H-pyrazol-1-yl)methyl)benzyl)-3,9,15,21-tetraisobutyl-4,10,12,16,22,24-hexamethyl-1,7,13,19-tetraoxa-4,10,16,22-tetraazacyclotetracosan-2,5,8,11,14,17,20,23-octaone], the minimal effective concentration in assay [1] is 0.001 to 0.01 µM; in assay [2], 0.001 to 0.01 µM; in assay [3], 1 to 10 µM.

As to `Cc1ccc(C#N)n1Cc1ccc(C[C@H]2OC(=O)[C@H](CC(C)C)N(C)C(=O)[C@@H](C)OC(=O)[C@H](CC(C)C)N(C)C(=O)[C@@H](Cc3ccc(Cn4c(C)ccc4C#N)cc3)OC(=O)[C@H](CC(C)C)N(C)C(=O)[C@@H](C)OC(=O)[C@H](CC(C)C)N(C)C2=O)cc1` [Example 9-48, 1,1′-(((((2R,5S,8R,11 S,14R,17S,20R,23S)-5,11,17,23-tetraisobutyl-4,8,10,16,20,22-hexamethyl-3,6,9,12,15,18,21,24-octaoxo-1,7,13,19-tetraoxa-4,10,16,22-tetraazacyclotetracosane-2,14-diyl)bis(methylene))bis(4,1-phenylene))bis(methylene))bis(5-methyl-1H-pyrrole-2-carbonitrile)], the minimal effective concentration was 0.001 to 0.01 µM in assay [1], not above 0.0001 µM in assay [2] and not above 1 µM in assay [3].

In the case of `CC#Cc1cnn(Cc2ccc(C[C@H]3OC(=O)[C@H](CC(C)C)N(C)C(=O)[C@@H](C)OC(=O)[C@H](CC(C)C)N(C)C(=O)[C@@H](Cc4ccc(Cn5cc(C#CC)cn5)cc4)OC(=O)[C@H](CC(C)C)N(C)C(=O)[C@@H](C)OC(=O)[C@H](CC(C)C)N(C)C3=O)cc2)c1` [Example 1b-118, (3S,6R,9S,12R,15S,18R,21S,24R)-3,9,15,21-tetraisobutyl-4,6,10,16,18,22-hexamethyl-12,24-bis(4-((4-(prop-1-yn-1-yl)-1H-pyrazol-1-yl)methyl)benzyl)-1,7,13,19-tetraoxa-4,10,16,22-tetraazacyclotetracosan-2,5,8,11,14,17,20,23-octaone], the results for the minimal effective concentration in assay [1], in assay [2] and in assay [3] were 0.001 to 0.01 µM, 0.0001 to 0.001 µM and 1 to 10 µM, respectively.

`CC(C)C[C@H]1C(=O)O[C@H](Cc2ccc(Cn3nccc3C3CCC3)cc2)C(=O)N(C)[C@@H](CC(C)C)C(=O)O[C@H](C)C(=O)N(C)[C@@H](CC(C)C)C(=O)O[C@H](Cc2ccc(Cn3nccc3C3CCC3)cc2)C(=O)N(C)[C@@H](CC(C)C)C(=O)O[C@H](C)C(=O)N1C` [Example 1b-129, (3S,6R,9S,12R,15S,18R,21S,24R)-6,18-bis(4-((5-cyclobutyl-1H-pyrazol-1-yl)methyl)benzyl)-3,9,15,21-tetraisobutyl-4,10,12,16,22,24-hexamethyl-1,7,13,19-tetraoxa-4,10,16,22-tetraazacyclotetracosan-2,5,8,11,14,17,20,23-octaone]: the minimal effective concentration in assay [1] was 0.01 to 0.1 µM; in assay [2], 0.0001 to 0.001 µM; in assay [3], 1 to 10 µM.

With `CC(C)C[C@H]1C(=O)O[C@H](Cc2ccc(Cn3cc(C(F)(F)F)ccc3=O)cc2)C(=O)N(C)[C@@H](CC(C)C)C(=O)O[C@H](C)C(=O)N(C)[C@@H](CC(C)C)C(=O)O[C@H](Cc2ccc(Cn3cc(C(F)(F)F)ccc3=O)cc2)C(=O)N(C)[C@@H](CC(C)C)C(=O)O[C@H](C)C(=O)N1C` [Example 9-22, (3S,6R,9S,12R,15S,18R,21S,24R)-3,9,15,21-tetraisobutyl-4,6,10,16,18,22-hexamethyl-12,24-bis(4-((2-oxo-5-(trifluoromethyl)pyridin-1 (2H)-yl)methyl)benzyl)-1,7,13,19-tetraoxa-4,10,16,22-tetraazacyclotetracosan-2,5,8,11,14,17,20,23-octaone], the minimal effective concentration in assay [1] lay within 0.001 to 0.01 µM; in assay [2], 0.001 to 0.01 µM; in assay [3] it was 1 to 10 µM.

In the case of `CC(C)C[C@H]1C(=O)O[C@H](Cc2ccc(Cn3nccc3C3(Cl)CC3)cc2)C(=O)N(C)[C@@H](CC(C)C)C(=O)O[C@H](C)C(=O)N(C)[C@@H](CC(C)C)C(=O)O[C@H](Cc2ccc(Cn3nccc3C3(Cl)CC3)cc2)C(=O)N(C)[C@@H](CC(C)C)C(=O)O[C@H](C)C(=O)N1C` [Example 1b-217, (3S,6R,9S,12R,15S,18R,21S,24R)-6,18-bis(4-((5-(1-chlorocyclopropyl)-1H-pyrazol-1-yl)methyl)benzyl)-3,9,15,21-tetraisobutyl-4,10,12,16,22,24-hexamethyl-1,7,13,19-tetraoxa-4,10,16,22-tetraazacyclotetracosan-2,5,8,11,14,17,20,23-octaone], the minimal effective concentration in assay [1] is 0.01 to 0.1 µM; in assay [2], 0.0001 to 0.001 µM; in assay [3] it was not above 1 µM.

Regarding `CC(C)C[C@H]1C(=O)O[C@H](Cc2ccc(Cn3cnc(Br)c3)cc2)C(=O)N(C)[C@@H](CC(C)C)C(=O)O[C@H](C)C(=O)N(C)[C@@H](CC(C)C)C(=O)O[C@H](Cc2ccccc2)C(=O)N(C)[C@@H](CC(C)C)C(=O)O[C@H](C)C(=O)N1C` [Example 8-15, (3S,6R,9S,12R,15S,18R,21S,24R)-6-benzyl-18-(4-((4-bromo-1H-imidazol-1-yl)methyl)benzyl)-3,9,15,21-tetraisobutyl-4,10,12,16,22,24-hexamethyl-1,7,13,19-tetraoxa-4,10,16,22-tetraazacyclotetracosan-2,5,8,11,14,17,20,23-octaone], the minimal effective concentration in assay [1] was in the range of 0.001 to 0.01 µM; in assay [2], 0.0001 to 0.001 µM; in assay [3] it was 1 to 10 µM.

On to `CC(C)C[C@H]1C(=O)O[C@H](Cc2cccc(Cn3ccnc3Cl)c2)C(=O)N(C)[C@@H](CC(C)C)C(=O)O[C@H](C)C(=O)N(C)[C@@H](CC(C)C)C(=O)O[C@H](Cc2ccc(Cn3ccnc3Cl)cc2)C(=O)N(C)[C@@H](CC(C)C)C(=O)O[C@H](C)C(=O)N1C` [Example 7-9, (3S,6R,9S,12R,15S,18R,21S,24R)-6-(3-((2-chloro-1H-imidazol-1-yl)methyl)benzyl)-18-(4-((2-chloro-1H-imidazol-1-yl)methyl)benzyl)-3,9,15,21-tetraisobutyl-4,10,12,16,22,24-hexamethyl-1,7,13,19-tetraoxa-4,10,16,22-tetraazacyclotetracosan-2,5,8,11,14,17,20,23-octaone], for which the minimal effective concentration in assay [1] lay within 0.001 to 0.01 µM; in assay [2], 0.0001 to 0.001 µM; in assay [3], 1 to 10 µM.

With `CC(C)C[C@H]1C(=O)O[C@H](Cc2ccc(Cn3nccc3C3CC3C)cc2)C(=O)N(C)[C@@H](CC(C)C)C(=O)O[C@H](C)C(=O)N(C)[C@@H](CC(C)C)C(=O)O[C@H](Cc2ccc(Cn3nccc3C3CC3C)cc2)C(=O)N(C)[C@@H](CC(C)C)C(=O)O[C@H](C)C(=O)N1C` (stereo partly drawn) [Example 1b-222, (3S,6R,9S,12R,15S,18R,21S,24R)-3,9,15,21-tetraisobutyl-4,6,10,16,18,22-hexamethyl-12,24-bis(4-((5-(2-methylcyclopropyl)-1H-pyrazol-1-yl)methyl)benzyl)-1,7,13,19-tetraoxa-4,10,16,22-tetraazacyclotetracosan-2,5,8,11,14,17,20,23-octaone], the minimal effective concentration was 0.01 to 0.1 µM in assay [1], 0.0001 to 0.001 µM in assay [2] and not above 1 µM in assay [3].

With `CC(C)C[C@H]1C(=O)O[C@H](Cc2ccc(Cn3ccc(OC(C)C)n3)cc2)C(=O)N(C)[C@@H](CC(C)C)C(=O)O[C@H](C)C(=O)N(C)[C@@H](CC(C)C)C(=O)O[C@H](Cc2ccc(Cn3ccc(OC(C)C)n3)cc2)C(=O)N(C)[C@@H](CC(C)C)C(=O)O[C@H](C)C(=O)N1C` [Example 1b-151, (3S,6R,9S,12R,15S,18R,21S,24R)-3,9,15,21-tetraisobutyl-6,18-bis(4-((3-isopropoxy-1H-pyrazol-1-yl)methyl)benzyl)-4,10,12,16,22,24-hexamethyl-1,7,13,19-tetraoxa-4,10,16,22-tetraazacyclotetracosan-2,5,8,11,14,17,20,23-octaone], the results for the minimal effective concentration in assay [1], in assay [2] and in assay [3] were 0.001 to 0.01 µM, 0.0001 to 0.001 µM and not above 1 µM, respectively.
